Measured values published in patent publication US20200368247A1, “CENICRIVIROC FOR THE TREATMENT OF FIBROSIS” (Tobira Therapeutics, Inc., priority 2014, published 2020).
Where “and” joins values, the source holds several entries; their conditions need not be identical. Equal values may be shown once.

Columns and labels:
CCR5 = CCR5 (Homo sapiens, UniProt P51681); assay: CCR5 receptor occupancy / RANTES-induced CCR5 internalization in PBMCs, flow cytometry; format: cell-based; settings: PBMCs
Description: (§1) The capacity of each drug to inhibit CCR5 or CCR2 internalization was evaluated. Cell-surface expression of CCR5 and CCR2 was assessed by flow cytometry, and fluorescence values were converted into molecules of equivalent soluble fluorescence (MESF).

NASH mice = assay: STAM mouse model of Non-alcoholic Steatohepatitis, anti-NASH/fibrosis effects, week 9; format: in vivo
Description: NASH was induced in male mice by a single injection of […] streptozotocin 2 days after birth (causing impaired glucose control), followed by a high fat diet from 4 weeks of age. […] Animals were sacrificed at 9 weeks of age, and biochemical, gene expression, and histologic evaluations of the liver were conducted.
This in vivo efficacy study was performed to examine the effects of Cenicriviroc in the STAM™ mouse model of Non-alcoholic Steatohepatitis.

[1] = Study 202 post-hoc APRI and FIB-4 fibrosis index scores; format: in vivo, human
Description: APRI and FIB-4 scores were calculated. Change in score category from baseline (BL) to Weeks 24 and 48 was assessed in patients with non-missing data. Correlations between changes from BL in APRI and FIB-4 scores, and MCP-1 (CCR2 ligand) and sCD14 (inflammatory biomarker) levels were evaluated.

[2] = Study 202 biomarkers of inflammation; format: in vivo, human; settings: for plasma MCP-1 over time: Study 202, up to Week 48
Description: As an exploratory analysis, levels of inflammation biomarkers MCP-1, sCD14, high sensitivity C-reactive protein [hs-CRP], interleukin-6 [IL-6], D-dimer, and fibrinogen) were measured. Baseline values and changes from baseline at Week 24 and Week 48 of MCP-1, sCD14, hs-CRP, IL-6, D-dimer, and fibrinogen are summarized in Table 25.
The sCD14 samples were originally analyzed in 2 separate batches: Batch 1 included samples leading up to the Week 24 primary analysis and Batch 2 included Week 32 and Week 48 (end of study) samples. A repeat analysis of archived samples all analyzed in one batch was conducted for consistency in analysis across time points. To control for the effects of covariates, a linear mixed-model repeated-measures analysis was conducted on the changes from baseline in sCD14 (analysis dated September 2013).

CCR2 = biological target: T1, CCR2 (Homo sapiens, UniProt P41597); assay: CCR2 receptor occupancy / MCP-1-induced CCR2 internalization in PBMCs, flow cytometry; format: cell-based
T1 construct: endogenous in cells; host or cells: monocytes within PBMCs from HIV+ and HIV- subjects
T1 sequence (P41597 1-360 isoform P41597-2): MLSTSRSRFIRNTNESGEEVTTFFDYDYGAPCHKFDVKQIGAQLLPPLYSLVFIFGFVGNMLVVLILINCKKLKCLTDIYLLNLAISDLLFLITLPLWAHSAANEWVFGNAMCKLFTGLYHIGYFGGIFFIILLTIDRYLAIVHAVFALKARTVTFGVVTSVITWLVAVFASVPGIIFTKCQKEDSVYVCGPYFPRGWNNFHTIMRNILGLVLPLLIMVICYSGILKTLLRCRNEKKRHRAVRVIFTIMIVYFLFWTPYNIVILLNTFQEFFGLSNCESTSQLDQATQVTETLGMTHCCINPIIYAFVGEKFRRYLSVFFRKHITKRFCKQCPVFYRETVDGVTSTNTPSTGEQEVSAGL
Description: as §1

[3] = system: male Sprague-Dawley rats with TAA-induced fibrosis; assay: Rat model of thioacetamide-induced liver fibrosis and cirrhosis; format: in vivo; settings: 8 weeks
Description: Fibrosis was induced in male Sprague-Dawley rats by intraperitoneal administration of TAA 150 mg/kg 3 times/week for 8 weeks. […] Biochemical, gene expression and histologic evaluations of the liver were conducted.

[4] = CVC-high 100 mg/kg/day, week 9, listed as Cenicriviroc
[5] = CVC-low 20 mg/kg/day, week 9, listed as Cenicriviroc

CCR5, sequence (P51681 whole entry): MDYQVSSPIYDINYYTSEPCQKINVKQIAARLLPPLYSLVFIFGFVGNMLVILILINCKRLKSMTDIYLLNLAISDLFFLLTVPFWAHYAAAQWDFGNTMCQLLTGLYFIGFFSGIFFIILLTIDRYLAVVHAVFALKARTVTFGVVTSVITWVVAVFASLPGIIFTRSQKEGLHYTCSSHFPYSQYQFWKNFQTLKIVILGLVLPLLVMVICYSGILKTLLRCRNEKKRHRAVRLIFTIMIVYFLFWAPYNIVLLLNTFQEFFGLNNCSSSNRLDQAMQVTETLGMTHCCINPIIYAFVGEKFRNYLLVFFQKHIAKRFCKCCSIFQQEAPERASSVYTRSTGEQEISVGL

## CCCCOCCOc1ccc(-c2ccc3c(c2)/C=C(/C(=O)Nc2ccc([S@@+]([O-])Cc4cncn4CCC)cc2)CCCN3CC(C)C)cc1 [CVC, (S)-8-[4-(2-Butoxyethoxy)phenyl]-1-isobutyl-N-(4-{[(1-propyl-1H-imidazol-5-yl)methyl]sulfinyl}phenyl)-1,2,3,4-tetrahydro-1-benzazocine-5-carboxamide]
CCR5
  prevention of RANTES-induced CCR5 internalization: at lower effective concentrations than MVC
NASH mice; 20 and 100 mg/kg/day, week 9
  decrease of collagen type 1 mRNA in whole liver lysates: 27-37%
NASH mice; CVC-high 100 mg/kg/day, week 9
  Body weight: 18.7 ± 0.9 g
  Modified Sirius red-positive area (perivascular space subtracted): 0.20% and 0.20±0.06%
  Plasma MCP-1: 91 ± 14 pg/mL
NASH mice; [4]
  Body weight: 18.7 ± 0.9 g
  Modified Sirius red-positive area (perivascular space subtracted): 0.20 ± 0.06%
  Plasma MCP-1: 91 ± 14 pg/mL
NASH mice; CVC-high, week 9, n = 6
  Hepatocyte ballooning score 0, number of mice: 1
  Hepatocyte ballooning score 1, number of mice: 2
  Hepatocyte ballooning score 2, number of mice: 3
  Lobular inflammation score 1, number of mice: 3
  Lobular inflammation score 2, number of mice: 3
  Steatosis score 0, number of mice: 1
  Steatosis score 1, number of mice: 5
NASH mice; CVC-low 20 mg/kg/day, week 9
  Body weight: 19.5 ± 2.0 g
  Liver hydroxyproline (μg/mg total protein): 0.63±0.05 μg/mg total protein
  Modified Sirius red-positive area (perivascular space subtracted): 0.29% and 0.29±0.14%
  Plasma ALT (U/L): 58±12 U/L
  Plasma MCP-1: 68 ± 16 pg/mL
  Plasma MIP-1β: 18 ± 2 pg/mL
NASH mice; [5]
  Body weight: 19.5 ± 2.0 g
  Liver hydroxyproline (μg/mg total protein): 0.63 ± 0.05 μg/mg total protein
  Modified Sirius red-positive area (perivascular space subtracted): 0.29 ± 0.14%
  Plasma ALT (U/L): 58 ± 12 U/L
  Plasma MCP-1: 68 ± 16 pg/mL
  Plasma MIP-1β: 18 ± 2 pg/mL
NASH mice; CVC-low, week 9, n = 6
  Hepatocyte ballooning score 1, number of mice: 3
  Hepatocyte ballooning score 2, number of mice: 3
  Lobular inflammation score 1, number of mice: 3
  Lobular inflammation score 2, number of mice: 3
  Steatosis score 1, number of mice: 6
NASH mice; Cenicriviroc-high, individual mice 301-306
  Modified positive area (%), per mouse: 0.20%
NASH mice; Cenicriviroc-high, individual mice 301-306, photos 1-5
  Modified positive area (%), per photo: 0.41% and 0.09% (2×) and 0.23% (2×) and 0.17% (2×) and 0.28% (2×) and 0.22% (2×) and 0.08% (3×) and 0.05% and 0.32% and 0.07% (3×) and 0.16% and 0.20% (2×) and 0.68% and 0.27% and 0.12% and 0.11% and 0.67% and 0.26% and 0.06% and 0.10%
NASH mice; week 9
  Liver hydroxyproline (μg/mg total protein): 0.62±0.09 μg/mg total protein
  Plasma ALT (U/L): 51±13 U/L and 52±13 U/L
  Plasma MIP-1β: 20 ± 4 pg/mL
NASH mice; week 9, listed as Cenicriviroc
  Liver hydroxyproline (μg/mg total protein): 0.62 ± 0.09 μg/mg total protein
  Plasma ALT (U/L): 52 ± 13 U/L
  Plasma MIP-1β: 20 ± 4 pg/mL
[1]; Baseline
  APRI 0.5-1.5, patients: 14%
  APRI <0.5, patients: 84%
  APRI >1.5, patients: 2%
  FIB-4 1.45-3.25, patients: 17%
  FIB-4 <1.45, patients: 82%
  FIB-4 >3.25, patients: 1%
[1]; Week 24
  APRI 0.5-1.5, patients: 7%
  APRI <0.5, patients: 93%
  APRI decreased 1 category from baseline, patients: 14%
  FIB-4 1.45-3.25, patients: 7%
  FIB-4 <1.45, patients: 93%
  FIB-4 decreased 1 category from baseline, patients: 13%
[1]; Week 48
  APRI 0.5-1.5, patients: 8%
  APRI <0.5, patients: 91%
  APRI >1.5, patients: 1%
  APRI decreased 1 category from baseline, patients: 10%
  FIB-4 1.45-3.25, patients: 5%
  FIB-4 <1.45, patients: 94%
  FIB-4 >3.25, patients: 1%
  FIB-4 decreased 1 category from baseline, patients: 14%
[1]; pooled CVC 100 mg and 200 mg
  subjects with improvements in APRI and FIB-4 scores over time: ≥ 10%
[2]; CVC 100 mg
  sCD14 Baseline value, Mean: 1.8e+06 pg/mL
  sCD14 change from baseline at Week 12, Mean: -140000 pg/mL
  sCD14 change from baseline at Week 12, Median: -160000 pg/mL
  sCD14 change from baseline at Week 24, Mean: -190000 pg/mL
  sCD14 change from baseline at Week 24, Median: -180000 pg/mL
  sCD14 change from baseline at Week 32, Mean: 110000 pg/mL
  sCD14 change from baseline at Week 32, Median: 120000 pg/mL
  sCD14 change from baseline at Week 48, Mean: 100000 pg/mL
  sCD14 change from baseline at Week 48, Median: 100000 pg/mL
[2]; CVC 200 mg
  sCD14 change from baseline at Week 12, Mean: -230000 pg/mL
  sCD14 change from baseline at Week 12, Median: -210000 pg/mL
  sCD14 change from baseline at Week 24, Mean: -230000 pg/mL
  sCD14 change from baseline at Week 24, Median: -190000 pg/mL
  sCD14 change from baseline at Week 32, Mean: -20000 pg/mL
  sCD14 change from baseline at Week 32, Median: -20000 pg/mL
  sCD14 change from baseline at Week 48, Mean: -40000 pg/mL
  sCD14 change from baseline at Week 48, Median: -40000 pg/mL
[2]
  plasma MCP-1 over time: increases over time
CCR2; CCR2, average
  concentration required to reach >80% receptor occupancy: 1.8 nM
CCR2; PBMCs
  prevention of MCP-1-induced CCR2 internalization: at lower concentrations than BMS-22
CCR2; in the absence of MCP-1, monocytes
  CCR2 cell-surface expression: decreased cell-surface expression on monocytes
[3]; Group 1a, 30 mg/kg/day concurrently with TAA
  reduction of fibrosis by collagen morphometry: 49%
[3]; Group 1b, 100 mg/kg/day concurrently with TAA
  reduction of fibrosis by collagen morphometry: 38%

## O=C1Nc2ccc(Cl)cc2[C@@](C#CC2CC2)(C(F)(F)F)O1 [EFV, efavirenz, reference compound]
[1]; Baseline
  APRI 0.5-1.5, patients: 4%
  APRI <0.5, patients: 96%
  FIB-4 <1.45, patients: 100%
[1]; EFV arm, Weeks 24 and 48
  subjects with decrease in FIB-4 score by one category: no subject
[1]; Week 24
  APRI <0.5, patients: 100%
  APRI decreased 1 category from baseline, patients: 5%
  FIB-4 <1.45, patients: 100%
[1]; Week 48
  APRI <0.5, patients: 100%
  APRI decreased 1 category from baseline, patients: 6%
  FIB-4 1.45-3.25, patients: 6%
  FIB-4 <1.45, patients: 94%
[2]; EFV 600 mg
  sCD14 Baseline value, Mean: 2e+06 pg/mL
  sCD14 change from baseline at Week 12, Mean: 90000 pg/mL
  sCD14 change from baseline at Week 12, Median: 180000 pg/mL
  sCD14 change from baseline at Week 24, Mean: 230000 pg/mL
  sCD14 change from baseline at Week 24, Median: 130000 pg/mL
  sCD14 change from baseline at Week 32, Mean: 480000 pg/mL
  sCD14 change from baseline at Week 32, Median: 170000 pg/mL
  sCD14 change from baseline at Week 48, Mean: 640000 pg/mL
  sCD14 change from baseline at Week 48, Median: 460000 pg/mL
[2]
  plasma MCP-1 over time: remained at baseline values
